# Experimental data published in publication PMC7217877, “N-AS-triggered SPMs are direct regulators of microglia in a model of Alzheimer’s disease” (Nature Communications, 2020).
# Key:
# [1] = stability (isomerization) of acetyl sphingosine isomers in phosphate buffer pH 7.4 (LC-ELSD); assay type: physicochemical
# Experimental: To a solution of 1-O-AS (0.25 mg) or 3-O-AS (0.25 mg) in water (400 μl) and DMSO (50 μl) at RT was added sodium phosphate buffer (pH 7.4, 0.1 M, 50 μl). The solution was mixed homogeneously with micropipette and was incubated at 25 °C for 10 min. Reverse-phase HPLC was performed using Agilent 1220 coupled with Agilent 1260 Infinity ELSD. Phenomenex Kinetex 1.7 μm C8 100 A ([…] LC column) at a flow rate of 0.5 ml min^−1 was used. A gradient of acetonitrile with 0.1% formic acid was used as an eluent.
# COX2 = test: SphK1-mediated COX2 acetylation with [14C] acetyl-CoA (ATP competition, SphK1 mutants; Supplementary Fig 1h,i); assay type: biochemical, human; settings: ATP 0-1000 µM as competitor of acetyl-CoA
# Excerpt: Single point mutations in SphK1 (R56A, R57A, R24A, R185A, D178A, and F192A) and COX2 (S565A, N181A, T564A, and S567A) were generated using the In-Fusion Cloning Kits (Clontech) and ORF cDNA expression plasmids of human SphK1 and COX2 gene (Sino Biological Inc, HG15679-NH and HG12036-NH), according to the manufacturer’s instructions. The forward and reverse primers described in Supplementary Table 4. The SphK1 WT, SphK1 mutants, COX2 WT, and COX2 mutant plasmids were transformed in the One shot TOP 10 competent cell (Invitrogen). The bacteria were grown in Luria-Bertani (LB, Invitrogen) plates supplemented with 50 μg ml^−1 kanamycin (Sigma-Aldrich) at 37 °C. The bacterial cell pellets were resuspended in lysis buffer containing 20 mM sodium phosphate (GE Healthcare), 500 mM NaCl (GE Healthcare), 20 mM imidazole (pH 7.4) (GE Healthcare), 0.2 mg ml^−1 lysozyme (Sigma-Aldrich), 20 μg ml^−1 DNase I (Roche), 1 mM MgCl2 (Sigma-Aldrich), and 1 mM PMSF (Sigma-Aldrich) before being lysed by sonication and clarified by centrifugation at 15,493×g for 10 min. Proteins were purified from the soluble fraction using His-Spin Trap columns (GE Healthcare) and the binding and acetylation assays were performed.
# Acetylation assays were performed according to previously described procedures with minor modifications. […] N-AS (2 μCi, ARC UK Ltd, ARC-1024) at 37 °C for 2 h. [^14C] aspirin (2 μCi, ARC UK Ltd, ARC-0473) was conducted as the positive control. The reactions were terminated by placing the reaction tubes in ice for 5 min. To evaluate in vivo neuronal and microglial COX2 acetylation, 10 μCi [^14C] N-AS was orally administrated to 9-months-old WT and APP/PS1 mice. After 1 h, neuron and microglia were isolated and sonicated in culture media. To immunoprecipitate acetylated COX2, the sample was incubated with COX2 antibody (Abcam, ab15191) at 4 °C for 24 h and precipitated by adding 50 μl of protein-A sepharose (GE Healthcare). Acetylated COX2 proteins bound to the beads were analyzed using a Tri-Carb 3110TR liquid scintillation counter (Perkin-Elmer).
# [2] = tested on: immortalized human microglia; test: live-cell phagocytosis assay (bead uptake, Supplementary Fig 6e,f); assay type: cell-based; settings: zileuton with N-AS in Aβ-treated human microglia
# Experimental: Live-cell phagocytosis assays were performed according to previously described procedures with minor modifications. Briefly, in a glass bottom cell culture dish (SPL, 101350), adult SV40 immortalized human microglia cells (Applied Biologics Materials, T0251) were seeded for phagocytosis assay. […] After incubation, the microglia were treated with 0 or 2.5 μM N-AS (Sigma-Aldrich, 01912) at 37 °C for 2 h. FITC beads (Invitrogen) preopsonized in FBS (Gibco) were added at a concentration at 0.01% and then immediately observed using a laser scanning confocal microscope equipped with a live cell chamber system (FV3000, Olympus) for 2 h. Confocal images were collected every 5 min for 2 h and analyzed using the ImageJ software (National Institutes of Health).
# [3] = tested on: immortalized human microglia; test: ac-S565 COX2 in human microglia (western blot, immunofluorescence, Supplementary Fig 6b,c); assay type: cell-based; settings: zileuton with N-AS in Aβ-treated human microglia vs without zileuton
# Experimental: To confirm the generation and roles of N-AS in neurons, cells from E18 C57BL/6 mice were prepared as previously described. Cortices were dissected and then dissociated followed by incubation in papain (Worthington) at 37 °C for 15 min. Neurons were plated on poly-L-lysine-coated coverslips with neuronal culture medium, serum-free Neurobasal medium (Gibco) containing 2% B27 supplements (Gibco), 1 mM Glutamax supplement (Gibco), and 100 U ml^−1 streptomycin/ 100 U ml^−1 penicillin (Gibco) at 37 °C in a humidified atmosphere of 5% CO2. Aβ 1–42 (10 μM, 24 h, Invitrogen, 03112) was exposed to neurons and the cells were analyzed for the generation and roles of N-AS. Primary astrocyte cultures were prepared from C57BL/6 mice as described previously. In brief, after removal of the meninges, postnatal day 7 (P7) mouse brain tissues were minced and incubated in a rocking water bath at 37 °C for 30 min in the presence of 0.25% trypsin-EDTA (Sigma-Aldrich). Enzyme-digested dissociated cells were triturated with astrocyte-specific medium (DMEM/F12 containing 10% FBS and 1% penicillin-streptomycin) and centrifuged at 155×g for 8 min. The pellet was resuspended in astrocyte-specific medium and passed through a 40-μm cell strainer. The filtrate was allowed pre-adherence for 30 min to remove any contamination from fibroblasts before being seeded in dishes and the addition of astrocyte-specific medium. To split the cells, Ara-C was added to the dishes and they were then placed in a heated shaker for 6–7 h. The medium was removed from the dishes, and trypsin-EDTA was added to the dish and incubated at 37 °C for 5–10 min. After centrifugation at 155×g for 8 min, the supernatant was removed, and the astrocytes were maintained in culture by feeding […] with astrocyte-specific medium. Primary microglia cultures were prepared from C57BL/6 mice as described previously. In brief, the cortices of 2-months-old mice were minced in Hibernate A (Gibco)/B27 supplements (Gibco) medium and dissociated using papain (Worthington) solution. After tissue trituration, cells were separated by Optiprep (Sigma-Aldrich) density gradient centrifugation. Microglia were plated with microglia-specific medium (DMEM/F12 containing 10% FBS and 1% penicillin-streptomycin). The immortalized human microglia (Applied Biologics Materials, T0251) were cultured in PriGrow III (Applied Biologics Materials, TM003) (supplemented with 10% FBS and 1% penicillin-streptomycin) at 37 °C in a humidified atmosphere of 5% CO2. […] The human microglia treated with Aβ 1–42 and/or zileuton was incubated with N-AS (2.5 μM, 2 h, Sigma-Aldrich, 01912), and were analyzed for the generation and roles of N-AS.
# Thioflavin S (Sigma-Aldrich) staining was carried out according to previously described procedures. We used 6E10 (mouse, 1:100, Signet, SIG39300), anti-20G10 (mouse, 1:1000, provided by D. R. Howlett, GlaxoSmithKline, Harlow, Essex, UK) for Aβ42, anti-G30 (rabbit, 1:1000, provided by D. R. Howlett) for Aβ40, SMA (mouse, 1:400, Sigma-Aldrich, A2547), AT8 (mouse, 1:500, Thermo Fisher Scientific, MN1020), Caspase-3 (mouse, 1:200, Novus Biologicals, NB100-56708), ac-S565 (rabbit, 1:100), COX2 (mouse, 1:250, Thermo Fisher Scientific, 35-8200), Iba1 (rabbit, 1:500, Wako, 019-19941 and goat, Abcam, ab5076), NeuN (mouse, 1:500, Millipore, MAB177), GFAP (rabbit, 1:500, Dako, N1506 and chicken, 1:500, Abcam, ab4674), and Lamp1 (mouse, 1:200, Abcam, ab24170). The sections were analyzed with a laser-scanning confocal microscope (FV3000; Olympus) or with a BX51 microscope (Olympus). MetaMorph software (Molecular Devices) was used to quantification. Three-dimensional reconstruction of microglia was recorded and analyzed using IMARIS software (Bitplane)[11]. […]
# [4] = tested on: immortalized human microglia; test: LM-SPM profile of human microglia (LC-MS/MS, Supplementary Table 3, Fig 6d); assay type: cell-based
smiles,measurement,setting,value
"CCCCCCCCCCCCC/C=C/[C@@H](O)[C@@H](N)COC(C)=O.O=C(O)C(F)(F)F [1-O-AS, (2S,3R,E)-1-Acetoxy-3-hydroxyoctadec-4-en-2-aminium trifluoroacetate]",time to isomerization to N-AS,[1],less than 10 min
"CCCCCCCCCCCCC/C=C/[C@@H](OC(C)=O)[C@@H](N)CO.O=C(O)C(F)(F)F [3-O-AS, (2S,3R,E)-3-Acetoxy-1-hydroxyoctadec-4-en-2-aminium trifluoroacetate]",time to isomerization to N-AS,[1],less than 10 min
Nc1ncnc2c1ncn2[C@@H]1O[C@H](COP(=O)(O)OP(=O)(O)OP(=O)(O)O)[C@@H](O)[C@H]1O [ATP],"SphK1-mediated COX2 acetylation, in words",COX2,inhibited in a concentration dependent manner
"CC(c1cc2ccccc2s1)N(O)C(N)=O (centres unmarked) [zileuton, reference compound]","restoration of phagocytic capacity, in words",[2],inhibited
same,"N-AS-induced COX2 acetylation, in words",[3],no significant
same,"LTB4, in words",[4]; zileuton treatment,LTB4 was not detected
same,"PGE2, in words",[4]; zileuton treatment,reduced PGE2
same,"production of N-AS-triggered SPMs, in words",[4]; zileuton with N-AS in Aβ-treated human microglia,inhibited
